Laboratory results taken from ChEMBL document CHEMBL1201862, “PubChem BioAssay data set” (2004).
Active and inactive are the calls of the source.

Assays:
[1] = molecular target: Intestinal-type alkaline phosphatase (Mus musculus, UniProt P24822); experiment: PubChem AID 488874; format: functional
[2] = molecular target: T1, Alkaline phosphatase, tissue-nonspecific isozyme (Homo sapiens, UniProt P05186); experiment: activation of tissue-nonspecific alkaline phosphatase – biochemical, TNAP isozyme, human IAP uHTS hits, selectivity assay for human IAP activator project, dose response (AID 488886); format: functional;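 note: potency of compounds raising TNAP activity as a selectivity check on IAP activators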
T1 sequence (P05186 whole entry): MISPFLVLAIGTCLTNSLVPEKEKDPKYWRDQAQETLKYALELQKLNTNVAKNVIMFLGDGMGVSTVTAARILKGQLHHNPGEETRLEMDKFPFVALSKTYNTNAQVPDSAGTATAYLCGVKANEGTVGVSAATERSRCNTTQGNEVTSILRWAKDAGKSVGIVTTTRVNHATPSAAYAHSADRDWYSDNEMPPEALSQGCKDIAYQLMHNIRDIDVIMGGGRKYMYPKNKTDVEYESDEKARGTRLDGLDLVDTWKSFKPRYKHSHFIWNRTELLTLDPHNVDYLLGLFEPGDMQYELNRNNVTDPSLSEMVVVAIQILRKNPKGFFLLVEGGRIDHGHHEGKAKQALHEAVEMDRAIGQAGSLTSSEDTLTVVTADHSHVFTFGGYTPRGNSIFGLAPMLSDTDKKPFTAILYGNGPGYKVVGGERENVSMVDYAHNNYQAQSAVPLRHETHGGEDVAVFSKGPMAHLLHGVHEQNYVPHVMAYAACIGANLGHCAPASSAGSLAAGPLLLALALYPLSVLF

[3] = Luminescence Cell-Based Dose Retest to Confirm Inhibitors of Cancer Stem Cells. [Related pubchem assays (depositor defined):AID2717, AID2721]; format: functional; conditions: Homo sapiens
[4] = molecular target: T2, Intestinal-type alkaline phosphatase (Homo sapiens, UniProt P09923); experiment: activation of human intestinal alkaline phosphatase – biochemical, luminescent, uHTS hits, set 2, dose response (AID 488817); format: functional;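 note: potency of activators that raise enzyme activity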
[5] = molecular target: T2, Intestinal-type alkaline phosphatase; experiment: human intestinal alkaline phosphatase activators, dose response, biochemical, luminescence, uHTS hits (AID 463120); format: functional
Escherichia coli = experiment: microbe, parasite or virus in culture
Cannabinoid receptor 1 [6] = molecular target: T3, Cannabinoid receptor 1 (Homo sapiens, UniProt P21554); experiment: SAR analysis of agonists of the Cannabinoid Receptor 1 using an Image-Based Assay - Set 2. [Related pubchem assays (depositor defined):AID2013, AID2026]; format: functional
Cannabinoid receptor 2 [7] = molecular target: T4, Cannabinoid receptor 2 (Homo sapiens, UniProt P34972); experiment: SAR analysis of antagonists of the Cannabinoid Receptor 2 using an Image-Based Assay. [Related pubchem assays (depositor defined):AID2013, AID2026]; format: functional
[8] = molecular target: G-protein coupled receptor 55 (Homo sapiens, UniProt Q9Y2T6); experiment: blockade of LPI-induced GPR55 arrestin translocation – imaging, U2OS, beta-arrestin-GFP, LPI agonist, set 2, SAR follow-up (AID 2820); format: functional
[9] = molecular target: T5, G-protein coupled receptor 35 (Homo sapiens, UniProt Q9HC97); experiment: SAR analysis of Agonists of the GPR35 Receptor using an Image-Based Assay - Set 2. [Related pubchem assays (depositor defined):AID2013, AID2026]; format: functional
[10] = molecular target: T5, G-protein coupled receptor 35; experiment: SAR analysis of Antagonists of the GPR35 Receptor using an Image-Based Assay - Set 3. [Related pubchem assays (depositor defined):AID2013, AID2026]; format: functional
Cannabinoid receptor 1 [11] = molecular target: T3, Cannabinoid receptor 1; experiment: SAR analysis of antagonists of the Cannabinoid Receptor 1 using an Image-Based Assay - Set 2. [Related pubchem assays (depositor defined):AID2013, AID2026]; format: functional
Cannabinoid receptor 2 [12] = molecular target: T4, Cannabinoid receptor 2; experiment: SAR analysis of agonists of the Cannabinoid Receptor 2 using an Image-Based Assay. [Related pubchem assays (depositor defined):AID2013, AID2026]; format: functional

T4 sequence (P34972 whole entry): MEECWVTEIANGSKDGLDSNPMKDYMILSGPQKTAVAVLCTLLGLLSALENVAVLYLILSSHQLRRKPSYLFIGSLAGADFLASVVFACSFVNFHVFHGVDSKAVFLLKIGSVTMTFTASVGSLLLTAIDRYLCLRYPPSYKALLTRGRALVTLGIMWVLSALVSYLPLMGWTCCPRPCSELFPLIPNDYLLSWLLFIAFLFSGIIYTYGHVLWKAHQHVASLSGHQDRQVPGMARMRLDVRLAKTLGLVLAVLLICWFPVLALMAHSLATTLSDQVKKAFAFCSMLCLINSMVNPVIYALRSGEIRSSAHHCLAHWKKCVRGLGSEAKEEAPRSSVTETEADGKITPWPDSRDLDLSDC
T5 sequence (Q9HC97 whole entry): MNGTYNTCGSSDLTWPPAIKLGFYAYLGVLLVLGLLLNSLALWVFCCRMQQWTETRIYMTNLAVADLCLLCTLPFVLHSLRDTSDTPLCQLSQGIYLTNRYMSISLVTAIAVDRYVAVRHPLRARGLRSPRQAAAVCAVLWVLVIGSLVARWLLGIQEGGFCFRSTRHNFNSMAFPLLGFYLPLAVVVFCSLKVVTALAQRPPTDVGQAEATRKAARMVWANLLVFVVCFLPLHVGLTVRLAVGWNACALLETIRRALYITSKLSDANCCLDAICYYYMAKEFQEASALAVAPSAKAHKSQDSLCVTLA
T2 sequence (P09923 whole entry): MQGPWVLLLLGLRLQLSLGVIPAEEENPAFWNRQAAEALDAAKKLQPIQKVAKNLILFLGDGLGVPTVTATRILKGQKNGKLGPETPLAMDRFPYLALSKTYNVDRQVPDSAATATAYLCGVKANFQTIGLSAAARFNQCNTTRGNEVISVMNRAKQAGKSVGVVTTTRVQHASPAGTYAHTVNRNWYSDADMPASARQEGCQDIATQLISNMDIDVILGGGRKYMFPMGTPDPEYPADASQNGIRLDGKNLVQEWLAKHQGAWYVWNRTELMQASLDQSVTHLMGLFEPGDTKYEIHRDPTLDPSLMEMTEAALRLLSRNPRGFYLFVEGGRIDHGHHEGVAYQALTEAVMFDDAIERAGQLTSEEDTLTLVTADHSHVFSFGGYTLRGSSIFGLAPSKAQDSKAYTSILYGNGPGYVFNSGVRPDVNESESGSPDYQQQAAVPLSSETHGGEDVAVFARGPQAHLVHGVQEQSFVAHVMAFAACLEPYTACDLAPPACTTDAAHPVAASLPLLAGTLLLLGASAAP
T3 sequence (P21554 whole entry): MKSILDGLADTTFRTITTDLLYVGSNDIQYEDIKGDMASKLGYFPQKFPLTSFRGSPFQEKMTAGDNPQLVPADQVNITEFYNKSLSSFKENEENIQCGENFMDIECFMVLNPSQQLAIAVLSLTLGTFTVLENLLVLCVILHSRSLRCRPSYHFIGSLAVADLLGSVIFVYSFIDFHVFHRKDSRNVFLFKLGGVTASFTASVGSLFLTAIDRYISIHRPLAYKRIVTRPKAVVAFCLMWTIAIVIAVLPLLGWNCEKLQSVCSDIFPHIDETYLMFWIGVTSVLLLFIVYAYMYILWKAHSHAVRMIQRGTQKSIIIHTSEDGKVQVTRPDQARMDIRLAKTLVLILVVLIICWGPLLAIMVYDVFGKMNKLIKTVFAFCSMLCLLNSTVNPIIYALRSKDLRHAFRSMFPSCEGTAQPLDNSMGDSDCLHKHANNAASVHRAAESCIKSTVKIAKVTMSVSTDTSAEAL
Sequence of Intestinal-type alkaline phosphatase (Mus musculus, UniProt P24822) (P24822 whole entry): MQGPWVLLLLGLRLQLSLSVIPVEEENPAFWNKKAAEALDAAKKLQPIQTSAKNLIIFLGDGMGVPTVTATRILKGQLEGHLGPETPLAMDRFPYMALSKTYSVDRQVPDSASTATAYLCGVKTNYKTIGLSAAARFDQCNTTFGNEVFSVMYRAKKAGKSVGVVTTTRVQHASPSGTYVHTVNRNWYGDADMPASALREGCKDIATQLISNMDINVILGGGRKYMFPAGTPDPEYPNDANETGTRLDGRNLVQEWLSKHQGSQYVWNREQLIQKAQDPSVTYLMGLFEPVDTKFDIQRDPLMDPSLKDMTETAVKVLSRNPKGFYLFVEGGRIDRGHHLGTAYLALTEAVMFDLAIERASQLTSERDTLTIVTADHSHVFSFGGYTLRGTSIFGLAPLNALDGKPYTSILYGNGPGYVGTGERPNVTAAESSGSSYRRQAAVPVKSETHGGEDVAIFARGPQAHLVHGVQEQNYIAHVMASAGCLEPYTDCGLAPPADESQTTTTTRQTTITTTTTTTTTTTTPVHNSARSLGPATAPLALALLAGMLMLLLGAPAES
Sequence of G-protein coupled receptor 55 (Q9Y2T6 whole entry): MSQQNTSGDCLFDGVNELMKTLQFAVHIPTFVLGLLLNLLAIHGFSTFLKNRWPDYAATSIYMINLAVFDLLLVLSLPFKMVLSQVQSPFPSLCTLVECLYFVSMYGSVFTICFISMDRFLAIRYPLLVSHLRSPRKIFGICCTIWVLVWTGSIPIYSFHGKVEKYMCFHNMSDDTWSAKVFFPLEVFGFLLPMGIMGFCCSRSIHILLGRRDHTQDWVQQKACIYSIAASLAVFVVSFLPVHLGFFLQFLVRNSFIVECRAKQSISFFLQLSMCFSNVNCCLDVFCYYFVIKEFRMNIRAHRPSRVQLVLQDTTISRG

In the case of `O=C(Nc1ccon1)c1nc[nH]c1C(=O)NCc1ccccc1`, the IC50 [1] is reported as 38.8 µM (active), the EC50 [2] is reported as 16.4 µM (active) and the AC50 [3] is reported as 0.76 µM (active). The EC50 [4] was 13.9 µM (active) and the EC50 [5] was 14.2 µM (active).
With `O=S(=O)(c1ccc2nc(O)sc2c1)N1CCCCC1` the AC50 (Escherichia coli) was > 150 µM (inactive).
For `COc1ccc(CNCCC(c2ccccc2)c2ccc3c(c2)OCO3)cc1` (stereo not drawn), the EC50 (Cannabinoid receptor 1 [6]) was > 32 µM (inactive), the IC50 (Cannabinoid receptor 2 [7]) was > 32 µM (inactive) and the IC50 [8] was 0.917 µM (active). The EC50 [9] was > 32 µM (inactive), the IC50 [10] was > 32 µM (inactive) and the IC50 (Cannabinoid receptor 1 [11]) was 5.82 µM (active). The EC50 (Cannabinoid receptor 2 [12]) was > 32 µM (inactive).
